How the values were obtained:
[1] = test system: Leishmania donovani liver parasite burden; assay: Mouse visceral leishmaniasis efficacy model; details: 30 mg/kg oral once daily for 10 days
THP-1 lysosomes = assay: Lysosomotropism assay (LysoTracker Red competition); assay type: cell-based, human; details: PMA-differentiated THP-1 cells, 30 min
Experimental: calculated, both in terms of pEC50 values. MIC (minimum inhibitory concentration) values are defined as the lowest concentration tested at which maximal inhibition is reached.
THP-1 cells were differentiated in 96-well plates with PMA as described above. Following differentiation the cells were treated for 30 min with dose-response curves of test compounds in presence of 100 nM LysoTracker Red DND-99 (Thermo Fisher) and 5 µg/ml Hoechst 33342. Next cells were washed 3 times with Hanks Buffered Saline Solution (Gibco) and imaged on a Perkin Elmer Operetta system. An image analysis algorithm to measure mean Lysotracker Red DND-99 intensity per cell was developed in Columbus. Mean Intensity was normalised using a no dye control (100% effect) and DMSO treated wells stained with Lysotracker Red DND-99 (0% effect control). Dose-response curves were fitted for the test compounds using a four-parameter equation (equation 5 above) and constrained to 0 and 100% where necessary.
To measure the pKa of DDD806905, a fast UV-metric method was performed using a Sirius T3 instrument (Sirius Analytical, U.K.). The calculation of the pKa was determined using the Sirius T3 refine software (Sirius Analytical, U.K.). In brief, the UV-metric pKa method is based on measuring pH during an acid-base titration and monitoring UV absorbance shift. The ionisation curve (Bjerrum curve) was then used to determine the pH where exactly 50 % of neutral and 50 % of ionised species was present. DDD806905 must be fully dissolved throughout the titration and so the titration is set to start at the pH where DDD806905 is in its fully ionised state. The appearance of precipitate was monitored throughout the experiment by a turbidity sensing device. […] The pKas of DDD806905 was determined at the pH where there was maximal change in UV absorbance with respect to pH. […]
LogD7.4 values were quantified using a Sirius T3 instrument (Sirius Analytical, U.K.). […] The instrument software calculated the pH of each data point using mass and charge balance equations and then fitted this theoretical data to the experimental data. […]

[2] = test system: L. donovani axenic amastigotes; assay: Leishmania axenic amastigote viability assay; assay type: cell-based, Leishmania donovani; details: Leishmania donovani; Table 1; read-out: Leishmania Axenic Amastigote EC50
Experimental: carried out as described above using 5%, 10% and 20% FBS in the media. To examine the effect of the methionine concentration on the potency of DDD806905 parasites were grown in the presence of drug and in the presence (or absence) of 20-fold excess methionine (0.3 g/l). IC50 curve fitting was undertaken in GraFit version 6.0 (Erithacus Software) using a four-parameter logistic dose-response curve (equation 6), with s the slope.
Leishmania Axenic Amastigote Assay
The Leishmania axenic amastigote assay was performed using the method published in Nühs et al 15.
Leishmania Intracellular Amastigote Assay
The intramacrophage Leishmania assay was performed using a modified version of the method described in De Rycker et al 16. […]
amphotericin B was included. Controls were as follows: columns 11 and 12: DMSO, columns 23 and 24: amphotericin B (final concentration 2 µM). 350 nl of compound was pre-dispensed into 384-well sterile intermediary plates. To the intermediary plates, 35 µl of THP-1 media was added and plates were shaken for >5 min to ensure complete mixing. THP-1 cells (8,000 per well, 50 µl) were plated into black clear-bottom 384-well plates (Corning) in presence of 20 nM phorbol 12-myristate 13- […]
in a humidified incubator for 75 h. The cells were then washed with 450 µl sterile phosphate buffered saline (PBS) supplemented with 1 mM CaCl2, 0.5 mM MgCl2, 0.1% (w/v) bovine serum albumin (PBS-A) and amastigotes were added to all wells at a multiplicity of infection of 5 (40,000 amastigotes per well). After 40 min at room temperature, plates were returned to the incubator.
Amastigotes were incubated in the presence of THP-1 macrophages for 16 h. Any remaining extracellular amastigotes were subsequently removed by washing with PBS-A followed by addition of 25 µl of the compound pre-dilutions using an Ipette-pro pipetting station (FluidX). The final dilution of each compound was 200-fold. Plates were incubated for 96 h and then washed (250 µl PBS-A) and fixed (4 % (v/v) formaldehyde-PBS, 30 min, room temperature). After fixation, the wells were washed with 250 µl PBS, stained (10 µg/ml DAPI, 0.4 µg/mL HCS Cellmask Deep Red in PBS + 0.1% (v/v) Triton X-100, 30 min, room temperature) and washed with 250 µl PBS. Finally, PBS + 0.05% (v/v) thimerosal was added to the wells, the plates were sealed and imaged on a high-content microscope (GE IN Cell 2000) using a 10x objective. Image analysis was carried out with GE IN Cell Analyzer 1000 Workstation using the “Multi Target Analysis” module. For each well, i) THP-1 cell count (cytotoxicity readout) and ii) average number of amastigotes per cell (potency readout) were […]

LdMetRS = LdMetRS (Leishmania donovani, UniProt A0A3Q8IBX2); assay: LdMetRS biochemical enzyme assay (BIOMOL Green); details: Table 1; read-out: LdMetRS IC50
Experimental: LdMetRS Assay Development and Kinetic Parameter Determinations
Activity of the LdMetRS enzyme was determined by monitoring levels of pyrophosphate released during the first step of the enzymatic reaction. The pyrophosphate formed was converted to two inorganic phosphate molecules using a pyrophosphatase enzyme and levels of the resulting phosphate molecules measured using the BIOMOL® Green reagent (Enzo Life Sciences) 2.
Following optimization of the assay buffer and determination of the enzyme linearity, 384-well plate based assays were carried out at room temperature in a 50 μl reaction volume containing 30 mM Tris, pH 8.0, 140 mM NaCl, 30 mM KCl, 40 mM MgCl2, 0.01% (v/v) Brij-35, 1 mM DTT, 1 U/ml pyrophosphatase, 50 nM recombinant LdMetRS, and varying concentrations of substrates. Michaelis constants for the ATP and methionine substrates were determined in an end point assay using the above buffer and enzyme conditions. Data were fitted to the modified Michaelis-Menten equations […]
Equation 1 (Hill equation): […]
Equation 2 (High substrate inhibition Michaelis-Menten equation): […]
LdMetRS Inhibitor Studies
All test compounds were solubilized in 100% DMSO to a concentration of 10 mM. To generate IC50 data for the compounds, assay ready plates containing 10-point inhibitor curves (half-log serial dilutions) were prepared using an Echo® 550 (Labcyte).
Following preparation of the inhibitor curves, assays were carried out at room temperature in clear, flat bottom, polystyrene, 384-well plates (Greiner). Each assay was performed in a 50 μl reaction volume containing 30 mM Tris; pH 8.0, 140 mM NaCl, 30 mM KCl, 40 mM MgCl2, 0.01% (v/v) Brij-35, 1 mM DTT, 1 U/ml pyrophosphatase, 50 nM recombinant LdMetRS, 50 µM methionine and 100 µM […]
Assays were performed by adding 25 μl buffer with enzyme to assay plates (with buffer only added to ‘no enzyme’ control wells) before the reaction was initiated with the addition of a 25 μl mix containing methionine, ATP and pyrophosphatase to all wells. Following a 120 min reaction at room temperature the assay was stopped with the addition of 50 μl BIOMOL® Green. The BIOMOL® Green signal was allowed to develop for 30 min before the absorbance of each well was read at 650 nm using an EnVision multilabel plate reader (PerkinElmer Life Sciences). All liquid dispensing steps were carried out using a Thermo Scientific WellMate dispenser (Matrix).
ActivityBase from IDBS (version 8.0.5.4) was used for data processing and analysis. All IC50 curve fitting was undertaken using ActivityBase XE (version 7.7.1) from IDBS. A four-parameter logistic dose-response curve was utilized with prefit used for all four parameters.
For DDD806905 Kiapp determinations, data fitting to the Morrison equation (equation 3) was carried out using GraFit v6.0 (Erithacus Software). It should be noted that data for fitting to the Morrison equation was normalised to a ‘100 µM DDD806905’ control rather than a ‘no enzyme’ control as […]
Equation 3 (Morrison equation): […]
vi = K1 −−([ ] [ ]ET+IT+Ki)−([ ] [ ]ET+IT+i)[ ] [ ]TIE4T
LdMetRS Mode of Inhibition Studies
To establish the mode of inhibition of DDD806905, data sets (generated using the BIOMOL® Green assay platform previously described) were collected by varying both the inhibitor and substrate concentrations. Using GraFit v6.0 (Erithacus Software) each data set was individually fitted to the Michaelis-Menten equation or the modified high substrate inhibition Michaelis-Menten equation described above (equation 2), and the resulting Lineweaver-Burk plots were examined for diagnostic […]
Data sets were then globally fitted to the appropriate model (with equations 4 and 5 used for […]
If more than one model appeared possible, then data were fitted to both and examined for significance using the F-test function in GraFit.

LdMetRS, sequence (A0A3Q8IBX2 entry or part of it): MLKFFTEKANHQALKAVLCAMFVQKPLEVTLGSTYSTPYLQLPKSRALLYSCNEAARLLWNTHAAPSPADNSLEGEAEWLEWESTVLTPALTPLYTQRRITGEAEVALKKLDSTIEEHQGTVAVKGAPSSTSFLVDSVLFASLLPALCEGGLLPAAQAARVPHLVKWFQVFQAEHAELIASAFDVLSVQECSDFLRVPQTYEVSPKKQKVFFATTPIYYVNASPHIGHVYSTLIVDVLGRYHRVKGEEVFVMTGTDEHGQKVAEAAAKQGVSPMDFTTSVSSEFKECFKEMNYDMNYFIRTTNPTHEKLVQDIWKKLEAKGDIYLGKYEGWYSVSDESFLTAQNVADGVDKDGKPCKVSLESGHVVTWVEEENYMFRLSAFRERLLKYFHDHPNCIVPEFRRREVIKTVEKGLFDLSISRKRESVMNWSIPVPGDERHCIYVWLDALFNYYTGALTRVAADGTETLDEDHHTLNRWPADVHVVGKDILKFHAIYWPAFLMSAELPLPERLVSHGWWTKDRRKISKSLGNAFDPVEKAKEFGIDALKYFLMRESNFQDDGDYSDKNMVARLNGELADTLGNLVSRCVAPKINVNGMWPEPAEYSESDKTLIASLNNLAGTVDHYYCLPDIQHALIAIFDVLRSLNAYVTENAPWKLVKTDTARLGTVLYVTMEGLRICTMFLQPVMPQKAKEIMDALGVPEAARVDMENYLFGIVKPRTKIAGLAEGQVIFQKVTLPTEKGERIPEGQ

CCCCCCCCCCCCCCCCOP(=O)([O-])OCC[N+](C)(C)C [miltefosine, reference compound]
reduction (knock-down) of liver parasite burden (LDU) vs vehicle [1]: 99.6%

O=c1nc(NCCCNS(=O)(=O)c2cc(Cl)cc(Cl)c2)[nH]c2ccccc12 [Compound 28]
competition with lysotracker red accumulation in THP-1 lysosomes (THP-1 lysosomes): does not compete with lysotracker red
EC50 [2]: 19 µM
IC50 (LdMetRS): 1.9 µM

Reference: publication PMC5663395, “Chemical Validation of Methionyl-tRNA Synthetase as a Druggable Target in Leishmania donovani” (ACS Infectious Diseases, 2017)
